From BigSolDB 2.1

O=C1CCc2ccc(OCCCCN3CCN(c4cccc(Cl)c4Cl)CC3)cc2N1
solubility (mole fraction)
Details | 278.15 K | 283.15 K | 288.15 K | 293.15 K | 298.15 K | 303.15 K | 308.15 K | 313.15 K | 318.15 K
in acetone | 1.97e-05 | 2.73e-05 | 3.6e-05 | 4.71e-05 | 5.94e-05 | 7.32e-05 | 8.93e-05 | 0.00011 | 0.000135
in isopropanol | 6.32e-06 | 9.1e-06 | 1.22e-05 | 1.68e-05 | 2.25e-05 | 2.94e-05 | 3.89e-05 | 5.05e-05 | 6.38e-05
in n-propanol | 1.46e-05 | 1.93e-05 | 2.57e-05 | 3.28e-05 | 4.12e-05 | 5.37e-05 | 6.72e-05 | 8.32e-05 | 0.000103
